The source of these data is ChEMBL document CHEMBL6087478, “Chain Length Does Matter: Development of High-Potency QS-21-Based Vaccine Adjuvants” (J Med Chem, 2025).

The source made the active and inactive calls. The rule behind the calls is not given here.

The test system of data set [1] is Mus musculus. Description: Adjuvant activity in OVA-immunized female C57BL/6 mouse assessed as induction of antigen-specific Th2 immune responses by measuring increase in anti-OVA specific IgG2b in serum at 50 ug, IM co-administered with OVA antigen on day 0,7 and 14 and measured on day 21 by ELISA method. In kind it is functional, organism-based. To be noted: dose 50.0 µg, time 21.0 day. For orientation: In an ELISA, binding on a coated surface is turned into a signal by an enzyme label.

In data set [2] the test system is Mus musculus. Description: Adjuvant activity in OVA-immunized female C57BL/6 mouse assessed as induction of antigen-specific Th1 immune responses by measuring increase in anti-OVA specific IgG2b in serum at 50 ug, IM co-administered with OVA antigen on day 0,7 and 14 and measured on day 21 by ELISA method. In kind it is functional, organism-based. To be noted: dose 50.0 µg, time 21.0 day.

The nature of data set [3]: Toxicity in C57BL/6 mouse assessed as effect on body weight change at 50 ug, sc in presence of OVA-antigen measured upto 7 days. Type of data set: organism-based. To be noted: in vivo, 168 h, dose 50 µg, time < 7 day.
In data set [4] the test system is Mus musculus. Description: Adjuvant activity in OVA-immunized female C57BL/6 mouse assessed as increase in IgG2b antibody titer at 50 ug, IM co-administered with OVA antigen on day 0,7 and 14 and measured on day 14,28,42 by ELISA method. In kind it is functional, organism-based. The note with it: dose 50.0 µg, time 42.0 day.
For data set [5], the system named is Mus musculus. Description: Adjuvant activity in OVA-immunized female C57BL/6 mouse assessed as increase IgG antibody titer at 50 ug, sc co-administered with OVA antigen on day 0,7 and 14 and measured on day 14,28,42 by ELISA method. Type of data set: functional, organism-based. To be noted: dose 50.0 µg, time 42.0 day.
Data set [6] relates to Mus musculus. Description: Adjuvant activity in OVA-immunized female C57BL/6 mouse assessed as increase in serum IgG anti-OVA antibody response at 50 ug, IM co-administered with OVA antigen on day 0,7 and 14 and measured on day 21 by ELISA method. The note with it: dose 50.0 µg, time 21.0 day. Type of data set: functional, organism-based.
For data set [7], the system named is Mus musculus. Description: Adjuvant activity in OVA-immunized female C57BL/6 mouse assessed as induction of antigen-specific Th1 immune responses by measuring increase in anti-OVA specific IgG1 in serum at 50 ug, IM co-administered with OVA antigen on day 0,7 and 14 and measured on day 21 by ELISA method. In kind it is functional, organism-based. To be noted: dose 50.0 µg, time 21.0 day.

Data set [8] is described as follows: Toxicity in C57BL/6 mouse assessed as effect on body weight change at 50 ug, IM in presence of KLH measured upto 7 days. The note with it: in vivo, 168 h, dose 50 µg, time < 7 day.
Data set [9] deals with Mus musculus. Description: Adjuvant activity in KLH-immunized female C57BL/6 mouse assessed as increase in serum IgG anti-KLH antibody titer at 50 ug, IM co-administered with KLH-antigen on day 0,7 and 14 and measured on day 14,28 and 42 by ELISA method. To be noted: dose 50.0 µg, time 42.0 day. In kind it is functional, organism-based.
Data set [10] relates to Mus musculus. Description: Adjuvant activity in OVA-immunized female C57BL/6 mouse assessed as increase IgG2b antibody titer at 50 ug, sc co-administered with OVA antigen on day 0,7 and 14 and measured on day 14,28,42 by ELISA method. Type of data set: functional, organism-based. The note with it: dose 50.0 µg, time 42.0 day.
Data set [11] deals with Mus musculus. Description: Adjuvant activity in OVA-immunized female C57BL/6 mouse assessed as increase in IgG antibody titer at 50 ug, IM co-administered with OVA antigen on day 0,7 and 14 and measured on day 14,28,42 by ELISA method. Type of data set: functional, organism-based. To be noted: dose 50.0 µg, time 42.0 day.
The test system of data set [12] is Mus musculus. Description: Adjuvant activity in OVA-immunized female C57BL/6 mouse assessed as induction of antigen-specific Th2 immune responses by measuring increase in anti-OVA specific IgG1 in serum at 50 ug, IM co-administered with OVA antigen on day 0,7 and 14 and measured on day 21 by ELISA method. In kind it is functional, organism-based. The note with it: dose 50.0 µg, time 21.0 day.

A short description of data set [13]: Toxicity in C57BL/6 mouse assessed as effect on body weight change at 50 ug, IM in presence of OVA-antigen measured upto 7 days. The note with it: in vivo, 168 h, dose 50 µg, time < 7 day.
The test system of data set [14] is Mus musculus. Description: Adjuvant activity in OVA-immunized female C57BL/6 mouse assessed as increase in IgG2b antibody titer at low dose administered as IM co-administered with OVA antigen on day 0,7 and 14 and measured on day 14,28,42 by ELISA method. Type of data set: functional, organism-based. The note with it: time 42.0 day.
Data set [15] has as its system Mus musculus. Description: Adjuvant activity in OVA-immunized female C57BL/6 mouse assessed as increase in IgG antibody titer at low dose administered as IM co-administered with OVA antigen on day 0,7 and 14 and measured on day 14,28,42 by ELISA method. Type of data set: functional, organism-based. The note with it: time 42.0 day.
For data set [16], the system named is Mus musculus. Description: Adjuvant activity in OVA-immunized female C57BL/6 mouse assessed as increase IgG2b antibody titer at 20 ug, sc co-administered with OVA antigen on day 0,7 and 14 and measured on day 14,28,42 by ELISA method. Type of data set: functional, organism-based. The note with it: dose 20.0 µg, time 42.0 day.
The test system of data set [17] is Mus musculus. Description: Potency index ratio of QS21 to test compound for adjuvant activity in KLH-immunized female C57BL/6 mouse assessed as increase in serum IgG anti-KLH antibody titer at 50 ug, IM co-administered with KLH-antigen on day 0,7 and 14 and measured on day 14,28 and 42 by ELISA method. To be noted: dose 50 µg, time 42 day. Type of data set: functional.

Data set [18] has as its system Mus musculus. Description: Adjuvant activity in OVA-immunized female C57BL/6 mouse assessed as increase in serum IgG anti-OVA antibody response at 5 ug, IM co-administered with OVA antigen on day 0,7 and 14 and measured on day 14,28 and 42 by ELISA method. In kind it is functional, organism-based. To be noted: dose 5.0 µg, time 42.0 day.
Data set [19] has as its system Mus musculus. Description: Adjuvant activity in OVA-immunized female C57BL/6 mouse assessed as increase IgG antibody titer at 20 ug, sc co-administered with OVA antigen on day 0,7 and 14 and measured on day 14,28,42 by ELISA method. To be noted: dose 20.0 µg, time 42.0 day. Type of data set: functional, organism-based.
Data set [20] concerns Mus musculus. Description: Adjuvant activity in OVA-immunized female C57BL/6 mouse assessed as increase in serum IgG1 at low dose administered as IM dose co-administered with OVA antigen on day 0,7 and 14 and measured on day 14,28 and 42 by ELISA method. In kind it is functional, organism-based. The note with it: time 42.0 day.
Data set [21] deals with Mus musculus. Description: Adjuvant activity in OVA-immunized female C57BL/6 mouse assessed as increase in serum IgG2b at low dose administered as IM dose co-administered with OVA antigen on day 0,7 and 14 and measured on day 14,28 and 42 by ELISA method. The note with it: time 42.0 day. In kind it is functional, organism-based.
Data set [22] can be described thus: Toxicity in C57BL/6 mouse assessed as effect on body weight change at 20 ug, sc in presence of OVA-antigen measured upto 7 days. The note with it: in vivo, 168 h, dose 20 µg, time < 7 day. In kind it is organism-based.

Take `C[C@@H]1O[C@@H](O[C@H]2[C@H](OC(=O)[C@]34CCC(C)(C)C[C@H]3C3=CC[C@@H]5[C@@]6(C)CC[C@H](O)[C@@](C)(C=O)[C@@H]6CC[C@@]5(C)[C@]3(C)CC4)O[C@H](CO)[C@H](NC(=O)CCCCCCCCCCCCC(=O)O)[C@@H]2O)[C@H](O)[C@H](O)[C@H]1O[C@@H]1OC[C@@H](O)[C@H](O)[C@H]1O`: the result with Mus musculus [1], in the data set on Mus musculus [2], in the data set with Mus musculus [4], with Mus musculus [5], in the data set on Mus musculus [6] and in the data set on Mus musculus [7] was Active. Besides, the result with Mus musculus [9], with Mus musculus [10], with Mus musculus [11] and in the data set with Mus musculus [12] was Active. Moreover, the Activity result in data set [3], in [8] and in data set [13] was “Non-toxic” throughout.

Take `C[C@@H]1O[C@@H](O[C@H]2[C@H](OC(=O)[C@]34CCC(C)(C)C[C@H]3C3=CC[C@@H]5[C@@]6(C)CC[C@H](O)[C@@](C)(C=O)[C@@H]6CC[C@@]5(C)[C@]3(C)CC4)O[C@H](CO)[C@H](NC(=O)CCCCCCCCCCC(=O)O)[C@@H]2O)[C@H](O)[C@H](O)[C@H]1O[C@@H]1OC[C@@H](O)[C@H](O)[C@H]1O`: the Activity entry in data set [3] is recorded as “Non-toxic”. Besides, the outcome with Mus musculus [5] and in the data set with Mus musculus [10] was Active.

Regarding `C[C@@H]1O[C@@H](O[C@H]2[C@H](OC(=O)[C@]34CCC(C)(C)C[C@H]3C3=CC[C@@H]5[C@@]6(C)CC[C@H](O)[C@@](C)(C=O)[C@@H]6CC[C@@]5(C)[C@]3(C)CC4)O[C@H](CO)[C@H](NC(=O)CCCCCCCCCCCCCCC(=O)O)[C@@H]2O)[C@H](O)[C@H](O)[C@H]1O[C@@H]1OC[C@@H](O)[C@H](O)[C@H]1O`, the outcome with Mus musculus [1], with Mus musculus [14], with Mus musculus [15], in the data set on Mus musculus [16], in the data set with Mus musculus [2] and with Mus musculus [6] was Active. Moreover, the outcome with Mus musculus [7], in the data set with Mus musculus [18], with Mus musculus [19], in the data set with Mus musculus [20], in the data set on Mus musculus [21] and with Mus musculus [12] was Active. The “fold change (FC)” value in the data set on Mus musculus [17] was 10. In addition, the Activity result in data set [8], in [22] and in data set [13] was “Non-toxic” in each case.

For the compound `CC1(C)CC[C@]2(C(=O)O[C@@H]3O[C@H](CO)[C@@H](O)[C@H](O[C@@H]4O[C@H](CO)[C@@H](O)[C@H](O[C@@H]5O[C@H](CO)[C@@H](O)[C@H](O[C@@H]6O[C@H](CO)[C@@H](O)[C@H](O[C@@H]7O[C@H](CO)[C@@H](O)[C@H](O)[C@H]7O)[C@H]6O)[C@H]5O)[C@H]4O)[C@H]3O)[C@H](O)C[C@]3(C)C(=CC[C@@H]4[C@@]5(C)CC[C@H](O[C@@H]6O[C@H](CO)[C@@H](O)[C@H](O[C@@H]7O[C@H](CO)[C@@H](O)[C@H](O[C@@H]8O[C@H](CO)[C@@H](O)[C@H](O)[C@H]8O)[C@H]7O)[C@H]6O)[C@@](C)(C=O)[C@@H]5CC[C@]43C)[C@@H]2C1`, the result with Mus musculus [16] and in the data set with Mus musculus [19] was Active.
